The target of assay [1] is GDP-bound NRAS wild-type protein (Homo sapiens, UniProt P01111). In words: Binding to NRAS by surface plasmon resonance (SPR), Single Cycle Kinetics. As to conditions: SPR. On the technique in general: Surface plasmon resonance follows binding to a sensor surface in real time, without labels.
Assay [2] deals with GDP-bound HRAS wild-type protein (Homo sapiens, UniProt P01112). Put plainly: Binding to HRAS by surface plasmon resonance (SPR), Single Cycle Kinetics. As to conditions: SPR.
[3] abbreviates: GDP-bound NRAS wild-type vs GDP-bound KRAS wild-type.
[4] abbreviates: GDP-bound HRAS wild-type vs GDP-bound KRAS wild-type.
The mark [5] stands for this setting: KD ratio, GDP-bound NRAS wild-type vs GDP-bound KRAS wild-type.
Setting [6] is: KD ratio, GDP-bound HRAS wild-type vs GDP-bound KRAS wild-type.

Where a SMILES comes first, the peptide text is derived from it. Bridges are numbered along the chain shown (N, C = ends). [ ]: non-standard residue; d: D form. The star is where a group is joined. hPhe(3,5-F2-4-CF3) = N[C@@H](CCc1cc(F)c(C(F)(F)F)c(F)c1)C(=O)O; NPrPhe(4-CF3) = CCCN[C@@H](Cc1ccc(C(F)(F)F)cc1)C(=O)O; NMeGly(cPent) = CN[C@H](C(=O)O)C1CCCC1; NMeD = CN[C@@H](CC(=O)O)C(=O)O; NMeL = CN[C@@H](CC(C)C)C(=O)O; Morpholide = C1CN(*)CCO1; Ac5c = NC1(C(=O)O)CCCC1; Aze = O=C(O)[C@@H]1CCN1; Sar = CNCC(=O)O

Chain of GDP-bound HRAS wild-type protein (P01112 whole entry): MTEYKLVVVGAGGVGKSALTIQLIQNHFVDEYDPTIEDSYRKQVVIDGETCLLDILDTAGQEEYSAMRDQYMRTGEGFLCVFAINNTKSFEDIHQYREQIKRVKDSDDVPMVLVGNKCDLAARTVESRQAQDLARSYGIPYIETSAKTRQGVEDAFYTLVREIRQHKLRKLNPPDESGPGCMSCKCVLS
Chain of GDP-bound NRAS wild-type protein (P01111 whole entry): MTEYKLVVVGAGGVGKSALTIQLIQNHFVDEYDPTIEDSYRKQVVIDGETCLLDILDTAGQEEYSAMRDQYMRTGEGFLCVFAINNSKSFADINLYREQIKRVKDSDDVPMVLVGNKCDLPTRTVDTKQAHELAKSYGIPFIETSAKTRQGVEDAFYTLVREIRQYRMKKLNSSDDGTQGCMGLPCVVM

Turning to `CCC[C@H]1C(=O)N[C@@H]([C@@H](C)CC)C(=O)N(C)CC(=O)N(C)[C@H]2C/C=C\CCN(C2=O)[C@@H](Cc2ccc(C(F)(F)F)cc2)C(=O)N(C)CC(=O)N[C@@H](CCc2ccc(C(F)(F)F)c(OC)c2)C(=O)N2C[C@H](OCC)C[C@H]2C(=O)N(C)C2(CCC2)C(=O)N(C)[C@@H](C(CC)CC)C(=O)N(C)[C@H](C(=O)N(C)C)CC(=O)N1C` [PP2382], the “NRAS/KRAS (ratio of KD value with respect to NRAS to KD value with respect to KRAS)” value in assay [1] (setting [3]) is “A (a compound having 10 or more and less than 20 is denoted as A)”. The “HRAS/KRAS (ratio of KD value with respect to HRAS to KD value with respect to KRAS)” value in assay [2] (setting [4]) was “A (a compound having 10 or more and less than 20 is denoted as A)”.
`CC[C@H](C)[C@@H]1NC(=O)[C@H](CC)N(C)C(=O)C[C@@H](C(=O)N(C)C)N(C)C(=O)[C@H](C2CCCC2)N(C)C(=O)C2(CCC2)NC(=O)CN(CC)C(=O)[C@H](CCc2cc(F)c(C(F)(F)F)c(F)c2)NC(=O)CN(C)C(=O)[C@H](Cc2ccc(C(F)(F)F)cc2)N2CC/C=C\C[C@@H](C2=O)N(C)C(=O)CN(C)C1=O` [PP1143]: the “NRAS/KRAS (ratio of KD value with respect to NRAS to KD value with respect to KRAS)” value in assay [1] (setting [5]) was “A (a compound having 10 or more and less than 20 is denoted as A)”. In assay [2] (setting [6]), the “HRAS/KRAS (ratio of KD value with respect to HRAS to KD value with respect to KRAS)” value was “A (a compound having 10 or more and less than 20 is denoted as A)”.
Regarding `CCCN1C(=O)[C@@H]2CCN2C(=O)CN(C)C(=O)[C@H]([C@@H](C)CC)NC(=O)[C@H](CC(C)C)N(C)C(=O)C[C@@H](C(=O)N2CCOCC2)N(C)C(=O)[C@H](C2CCCC2)N(C)C(=O)C2(CCCC2)NC(=O)[C@@H]2CCCN2C(=O)[C@H](CCc2cc(F)c(C(F)(F)F)c(F)c2)NC(=O)CN(C)C(=O)[C@@H]1Cc1ccc(C(F)(F)F)cc1` [PP0789] ([NMeL]I[Sar][Aze][NPrPhe(4-CF3)][Sar][hPhe(3,5-F2-4-CF3)]P[Ac5c][NMeGly(cPent)][NMeD]-Morpholide; lactam N-11), the “NRAS/KRAS (ratio of KD value with respect to GDP-bound NRAS wild-type protein to KD value with respect to KRAS)” value in assay [1] (KD ratio NRAS/KRAS) is “C (A compound having a KD ratio of 0.1 or more and less than 3 is denoted as C)”. For the same molecule, the “HRAS/KRAS (ratio of KD value with respect to GDP-bound HRAS wild-type protein to KD value with respect to KRAS)” value in assay [2] (KD ratio HRAS/KRAS) was “B (a compound having 3 or more and less than 10 is denoted as B)”.
Take `CC[C@H](C)[C@@H]1NC(=O)[C@H](CC2CC2)N(C)C(=O)C[C@@H](C(=O)N(C)C)N(C)C(=O)[C@H](C2CCCC2)N(C)C(=O)C2(CC(C)(C)C2)NC(=O)[C@@H]2CC(F)(F)CN2C(=O)[C@H](CCc2cc(F)c(C(F)(F)F)c(F)c2)NC(=O)CN(C)C(=O)[C@H](Cc2ccc(C(F)(F)F)cc2)N2CC/C=C\C[C@@H](C2=O)N(C)C(=O)CN(C)C1=O` [PP1713]: the “NRAS/KRAS (ratio of KD value for NRAS to KD value for KRAS)” value in assay [1] (setting [5]) was “A (a compound having 10 or more and less than 20 is denoted as A)”. In assay [2] (setting [6]), the “HRAS/KRAS (ratio of KD value for HRAS to KD value for KRAS)” value is “A (a compound having 10 or more and less than 20 is denoted as A)”.
As to `CCC[C@H]1C(=O)N[C@@H]([C@@H](C)CC)C(=O)N(C)CC(=O)N(C)[C@H]2C/C=C\CCN(C2=O)[C@@H](Cc2ccc(C)cc2)C(=O)N(C)CC(=O)N[C@@H](CCc2ccc(C(F)(F)F)c(Cl)c2)C(=O)N2C[C@H](OCC)C[C@H]2C(=O)NC2(CC(C)(C)C2)C(=O)N(C)[C@@H](C(CC)CC)C(=O)N(C)[C@H](C(=O)N(C)C)CC(=O)N1C` [PP2146], the “NRAS/KRAS (ratio of KD value with respect to NRAS to KD value with respect to KRAS)” value in assay [1] (setting [3]) is “A (a compound having 10 or more and less than 20 is denoted as A)”. Also, in assay [2] (setting [4]), the “HRAS/KRAS (ratio of KD value with respect to HRAS to KD value with respect to KRAS)” value was “A (a compound having 10 or more and less than 20 is denoted as A)”.
With `CCOC[C@H]1C(=O)N[C@@H]([C@@H](C)CC)C(=O)N(C)CC(=O)N(C)[C@H]2C/C=C\CCN(C2=O)[C@@H](CC2CCC(F)(F)CC2)C(=O)N(C)CC(=O)N[C@@H](CCc2cc(F)c(C(F)(F)F)c(F)c2)C(=O)N2C[C@H](OCC)C[C@H]2C(=O)NC2(CC(C)(C)C2)C(=O)N(C)[C@@H](C(CC)CC)C(=O)N(C)[C@H](C(=O)N(C)C)CC(=O)N1C` [PP2450], the “NRAS/KRAS (ratio of KD value with respect to NRAS to KD value with respect to KRAS)” value in assay [1] (setting [3]) was “A (a compound having 10 or more and less than 20 is denoted as A)”. Further, the “HRAS/KRAS (ratio of KD value with respect to HRAS to KD value with respect to KRAS)” value in assay [2] (setting [4]) was “A (a compound having 10 or more and less than 20 is denoted as A)”.
For the molecule `CCO[C@@H]1C[C@H]2C(=O)NC3(CC(C)(C)C3)C(=O)N(C)[C@@H](C(CC)CC)C(=O)N(C)[C@H](C(=O)N(C)C)CC(=O)N(C)[C@@H](COC)C(=O)N[C@@H]([C@@H](C)CC)C(=O)N(C)CC(=O)N(C)[C@H]3C/C=C\CCN(C3=O)[C@@H](CC3CCCCC3)C(=O)N(C)CC(=O)N[C@@H](CCc3ccc(C(F)(F)F)c(Cl)c3)C(=O)N2C1` [PP2468], in assay [1] (setting [3]), the “NRAS/KRAS (ratio of KD value with respect to NRAS to KD value with respect to KRAS)” value was “AA (a compound having 20 or more is denoted as AA)”. In addition, in assay [2] (setting [4]), the “HRAS/KRAS (ratio of KD value with respect to HRAS to KD value with respect to KRAS)” value was “A (a compound having 10 or more and less than 20 is denoted as A)”.
